The subject of assay [1] is K562. As to the kind of experiment: Inhibitory activity against K-562 (human chronic myeloid Leukemia) cells. The assay is classed as functional, cell-based.
Assay [2] has as its system Nucleic Acid. The experiment in a line: Apparent binding constant to poly (dA.dT) DNA was evaluated by measuring the loss of ethidium fluorescence. The class given is nucleic-acid assay.
Assay [3] relates to COLO 205. The experiment in a line: Cytotoxicity against the COLO-205 Colon Cancer cell line from human cancer. The assay is classed as functional. As to conditions: read-out: LC50 (the source's name).
In assay [4] the test system is DMS-114. As to the kind of experiment: Cytotoxicity against the DMS114 Small Cell Lung Cancer cell line from human cancer. As to conditions: read-out: LC50 (the source's name). The class given is functional.
Assay [5] relates to EKVX. As to the kind of experiment: Cytotoxicity against the […] Non-Small Cell Lung Cancer cell line from human cancer. Particulars: read-out: LC50 (the source's name). The class given is functional.
For assay [6], the system named is HL-60. The experiment in a line: Cytotoxicity against the HL-60 (TB) Leukemia cell line from human cancer. The class given is functional. As to conditions: read-out: LC50 (the source's name).
In assay [7] the test system is HOP-62. The experiment in a line: Cytotoxicity against the HOP-62 Non-Small Cell Lung Cancer cell line from human cancer. The class given is functional. As to conditions: read-out: LC50 (the source's name).
Assay [8] has as its system HCC 2998. The experiment in a line: Cytotoxicity against the HCC2998 Colon Cancer cell line from human cancer. The class given is functional. As to conditions: read-out: LC50 (the source's name).
For assay [9], the system named is K562. As to the kind of experiment: Cytotoxicity against the K-562 Leukemia cell line from human cancer. The class given is functional. Particulars: read-out: LC50 (the source's name).
For assay [10], the system named is M19-MEL. The experiment in a line: Cytotoxicity against the M19-MEL Melanoma cell line from human cancer. As to conditions: read-out: LC50 (the source's name). The class given is functional.
The subject of assay [11] is KM12. As to the kind of experiment: Cytotoxicity against the KM12 Colon Cancer cell line from human cancer. The assay is classed as functional. Particulars: read-out: LC50 (the source's name).
For assay [12], the system named is Malme-3M. The experiment in a line: Cytotoxicity against the MALME-3M Melanoma cell line from human cancer. The assay is classed as functional. As to conditions: read-out: LC50 (the source's name).
Assay [13] has as its system MOLT-4. The experiment in a line: Cytotoxicity against the Molt-4 Leukemia cell line from human cancer. The class given is functional. Particulars: read-out: LC50 (the source's name).
In assay [14] the test system is OVCAR-3. The experiment in a line: Cytotoxicity against the OVCAR-3 Ovarian Cancer cell line from human cancer. The class given is functional. Particulars: read-out: LC50 (the source's name).
Assay [15] concerns OVCAR-4. As to the kind of experiment: Cytotoxicity against the OVCAR-4 Ovarian Cancer cell line from human cancer. The class given is functional. Particulars: read-out: LC50 (the source's name).
The subject of assay [16] is NCI-H23. The experiment in a line: Cytotoxicity against the NCI-H23 Non-Small Cell Lung Cancer cell line from human cancer. The class given is functional. Particulars: read-out: LC50 (the source's name).
Assay [17] has as its system RXF 393. The experiment in a line: Cytotoxicity against the RXF-393 Renal Cancer cell line from human cancer. The class given is functional. Particulars: read-out: LC50 (the source's name).
Assay [18] has as its system SF-268. The experiment in a line: Cytotoxicity against the SF-268 CNS Cancer cell line from human cancer. The assay is classed as functional. As to conditions: read-out: LC50 (the source's name).
The test system of assay [19] is SK-MEL-2. As to the kind of experiment: Cytotoxicity against the SK-MEL-2 Melanoma cell line from human cancer. The class given is functional. Particulars: read-out: LC50 (the source's name).
In assay [20] the test system is SW-620. As to the kind of experiment: Cytotoxicity against the SW-620 Colon Cancer cell line from human cancer. The class given is functional. Particulars: read-out: LC50 (the source's name).
Assay [21] concerns SN12C. As to the kind of experiment: Cytotoxicity against the SN12C Renal Cancer cell line from human cancer. The assay is classed as functional. Particulars: read-out: LC50 (the source's name).
Assay [22] deals with SNB-75. The experiment in a line: Cytotoxicity against the SNB-75 CNS Cancer cell line from human cancer. The assay is classed as functional. Particulars: read-out: LC50 (the source's name).
The test system of assay [23] is SK-OV-3. As to the kind of experiment: Cytotoxicity against the SK-OV-3 Ovarian Cancer cell line from human cancer. The class given is functional. Particulars: read-out: LC50 (the source's name).
In assay [24] the test system is SK-MEL-28. The experiment in a line: Cytotoxicity against the SK-MEL-28 Melanoma cell line from human cancer. The class given is functional. As to conditions: read-out: LC50 (the source's name).
The subject of assay [25] is Tequatrovirus T4. As to the kind of experiment: Apparent binding constant to T4 coliphage DNA was evaluated by measuring the loss of ethidium fluorescence. The assay is classed as functional.
Assay [26] concerns U-251. The experiment in a line: Cytotoxicity against the U251 CNS Cancer cell line from human cancer. As to conditions: read-out: LC50 (the source's name). The class given is functional.
For assay [27], the species on record is Bos taurus. As to the kind of experiment: Apparent binding constant to calf thymus DNA was evaluated by measuring the loss of ethidium fluorescence.
For assay [28], the system named is Nucleic Acid. The experiment in a line: Apparent binding constant to poly (dG.dC) DNA was evaluated by measuring the loss of ethidium fluorescence. The class given is nucleic-acid assay.
Assay [29] has as its system DMS-273. The experiment in a line: Cytotoxicity against the DMS273 Small Cell Lung Cancer cell line from human cancer. The class given is functional. As to conditions: read-out: LC50 (the source's name).

For `CN(C)CCNC(=O)c1nc(NC(=O)c2nc(NC(=O)CBr)cn2C)cn1C`, in assay [1], the IC50 came to 400 µM.
On the same count and under the same terms, next, `CN(C)CCNC(=O)c1nc(NC(=O)c2nc(NC(=O)CCl)cn2C)cn1C`: 350 µM.
The same measure, in the same setting: as for `CN(C)CCNC(=O)c1nc(NC(=O)c2nc(NC(=O)C(Cl)Cl)cn2C)cn1C`, the figure is greater than 500 µM.
As to `CCBr`, in assay [2], the K app was determined as 9.5e+06 M⁻¹.
For `CN(C)CCNC(=O)c1nc(NC(=O)c2nc(NC(=O)C3CC3)cn2C)cn1C`, in assay [1], the IC50 is greater than 500 µM.
Regarding `CN(C)CCNC(=O)c1nc(NC(=O)c2nc(NC(=O)c3ccc(N(CCCl)CCCl)cc3)cn2C)cn1C`, the CC50 in [3] turned out to be 5.88 µM; in [4], 5.83 µM; in assay [5], 47.5 µM; in [6], 7.84 µM; in assay [7], 52.3 µM; in [8], 33.7 µM. Besides, the CC50 in assay [9] is 17.2 µM; in [10], 5.64 µM; in [11], 47 µM; in assay [12], 6.14 µM; in [13], 18.1 µM; in assay [14] it was 56 µM. The CC50 in assay [15] came to 34.2 µM; in [16], 47.1 µM; in assay [17], 50.3 µM; in assay [18], 50 µM; in assay [19], 7.17 µM; in assay [20] it was 9.95 µM. Besides, the CC50 in [21] came out at 15.6 µM; in assay [22] it was 41 µM; in [23], 52.9 µM; in assay [24], 5.69 µM; in assay [26], 6.73 µM. The IC50 in [1] worked out at 12.5 µM. The K app was 236000 M⁻¹ in assay [25], 456000 M⁻¹ in assay [27], 455000 M⁻¹ in assay [28] and 475000 M⁻¹ in assay [2].
For `CN(C)CCNC(=O)c1nc(NC(=O)c2nc(NC(=O)c3nc(NC(=O)c4ccc(N(CCCl)CCCl)cc4)cn3C)cn2C)cn1C`, the CC50 in assay [3] is 0.97 µM; in assay [4] it was 0.54 µM; in assay [29], 0.99 µM; in assay [5], 0.88 µM; in assay [6] it was 0.72 µM; in assay [7], 1.17 µM. The CC50 in assay [8] came out at 0.68 µM; in assay [9], 0.58 µM; in assay [10] it was 0.56 µM; in assay [11], 0.96 µM; in assay [12], 2.63 µM; in [13], 0.98 µM. In addition, the CC50 in [14] was found to be 0.72 µM; in [15], 0.61 µM; in assay [16], 0.96 µM; in assay [17], 0.66 µM; in assay [18], 0.77 µM; in [19], 0.65 µM. Further, the CC50 in [20] worked out at 0.79 µM; in assay [21] it was 0.61 µM; in [22], 0.61 µM; in [23], 0.83 µM; in assay [24] it was 0.91 µM; in assay [26], 0.5 µM. This compound displayed an IC50 in [1] of 0.3 µM. Besides, the K app amounted to 168000 M⁻¹ in [25], 591000 M⁻¹ in assay [27], 495000 M⁻¹ in [28] and 950000 M⁻¹ in [2].
Turning to `N[C@@H](Cc1ccc(N(CCCl)CCCl)cc1)C(=O)O` [MELPHALAN], the IC50 in [1] came to 35 µM.
With `CN(C)CCNC(=O)c1nc(NC(=O)c2nc(NC=O)cn2C)cn1C`, the IC50 in assay [1] is greater than 500 µM. The K app is 40000 M⁻¹ in assay [25], 32000 M⁻¹ in assay [27], 23000 M⁻¹ in assay [28] and 17000 M⁻¹ in assay [2].
With `CN(C)CCNC(=O)c1nc(NC=O)cn1C`, the K app in assay [27] was 25000 M⁻¹; in assay [28], 2000 M⁻¹.
Regarding `CN(C)CCNC(=O)c1nc(NC(=O)c2nc(NC(=O)c3nc(NC=O)cn3C)cn2C)cn1C`, the K app stood at 667000 M⁻¹ in assay [25], 774000 M⁻¹ in [27], 613000 M⁻¹ in assay [28] and 594000 M⁻¹ in [2].
The like results for `Cn1cc(NC(=O)c2cc(NC(=O)c3cc(NC=O)cn3C)cn2C)cc1C(=O)NCCC(=N)N` [STALLIMYCIN] were, in that order, 650000 M⁻¹, 774000 M⁻¹, 203000 M⁻¹ and 3.48e+07 M⁻¹.

The values above are taken from ChEMBL document CHEMBL1127090, “In vitro cytotoxicity of GC sequence directed alkylating agents related to distamycin” (J Med Chem, 1993).
